Consider 33 compounds from patent publication US20060045953A1 (priority 2004, published 2006).

SMILES strings stand for the structures. Read-outs that look alike come from different tables or passages of the source.

In this assay the target is T1, hT1R1/hT1R3 umami receptor (Homo sapiens, UniProt Q7RTX0+Q7RTX1).
T1 construct: expressed in transfected cells; host or cells: HEK293 derivative stably expressing Gα15, clone I-17, expression induced with mifepristone
T1 sequence (Q7RTX1 21-841): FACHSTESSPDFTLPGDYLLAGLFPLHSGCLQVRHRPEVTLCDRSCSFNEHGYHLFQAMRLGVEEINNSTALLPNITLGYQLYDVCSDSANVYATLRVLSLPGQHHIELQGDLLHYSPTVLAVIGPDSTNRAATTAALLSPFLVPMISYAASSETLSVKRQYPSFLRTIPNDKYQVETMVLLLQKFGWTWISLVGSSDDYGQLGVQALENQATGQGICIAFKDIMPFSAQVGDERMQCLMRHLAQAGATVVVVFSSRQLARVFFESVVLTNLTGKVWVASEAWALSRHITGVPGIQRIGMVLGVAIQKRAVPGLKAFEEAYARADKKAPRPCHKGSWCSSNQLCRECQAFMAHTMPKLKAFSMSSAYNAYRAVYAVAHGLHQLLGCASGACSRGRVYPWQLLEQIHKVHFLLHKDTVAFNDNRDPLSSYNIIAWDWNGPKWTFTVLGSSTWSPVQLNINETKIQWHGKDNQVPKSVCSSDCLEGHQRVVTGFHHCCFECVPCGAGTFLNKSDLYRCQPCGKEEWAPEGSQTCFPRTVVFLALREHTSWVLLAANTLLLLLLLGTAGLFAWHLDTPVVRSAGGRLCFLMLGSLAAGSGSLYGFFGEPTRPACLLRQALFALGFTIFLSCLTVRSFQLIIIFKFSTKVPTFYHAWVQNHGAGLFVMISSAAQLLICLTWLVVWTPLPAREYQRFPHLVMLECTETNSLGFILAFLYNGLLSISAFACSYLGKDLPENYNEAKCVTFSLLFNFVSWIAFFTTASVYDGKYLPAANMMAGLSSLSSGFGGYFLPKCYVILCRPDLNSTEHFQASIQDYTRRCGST
T1 sequence (Q7RTX0 21-852): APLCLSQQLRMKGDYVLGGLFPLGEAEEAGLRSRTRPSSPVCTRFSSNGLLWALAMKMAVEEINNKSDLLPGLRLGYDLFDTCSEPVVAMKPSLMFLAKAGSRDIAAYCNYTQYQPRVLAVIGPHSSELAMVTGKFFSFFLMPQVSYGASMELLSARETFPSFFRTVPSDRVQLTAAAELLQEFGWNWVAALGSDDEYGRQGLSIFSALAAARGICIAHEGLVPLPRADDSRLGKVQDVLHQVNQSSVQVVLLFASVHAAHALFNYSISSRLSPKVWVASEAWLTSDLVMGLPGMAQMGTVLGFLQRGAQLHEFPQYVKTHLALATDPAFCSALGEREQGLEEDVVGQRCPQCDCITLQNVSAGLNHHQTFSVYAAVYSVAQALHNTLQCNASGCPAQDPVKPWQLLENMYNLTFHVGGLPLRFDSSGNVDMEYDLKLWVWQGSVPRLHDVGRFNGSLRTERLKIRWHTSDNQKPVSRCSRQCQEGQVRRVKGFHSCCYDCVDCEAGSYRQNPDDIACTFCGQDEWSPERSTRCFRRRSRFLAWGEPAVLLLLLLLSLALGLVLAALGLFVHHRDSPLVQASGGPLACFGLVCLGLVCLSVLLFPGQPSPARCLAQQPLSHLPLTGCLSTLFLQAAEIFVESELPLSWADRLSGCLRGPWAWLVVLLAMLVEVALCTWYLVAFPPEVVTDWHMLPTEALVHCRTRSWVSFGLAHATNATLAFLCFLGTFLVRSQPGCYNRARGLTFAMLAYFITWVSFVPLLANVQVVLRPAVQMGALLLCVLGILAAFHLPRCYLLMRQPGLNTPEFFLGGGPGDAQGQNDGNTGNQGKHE
In words: In vitro hT1R1/hT1R3 umami taste receptor activation assay (FLIPR, dose response). Type of assay: cell-based. The source says: In order to identify new savory flavoring agents and enhancers, including compounds with savory agonist and enhancer activities (dual activity), the compounds of Formula (I) were screened in primary assays and secondary assays including compound dose response and enhancement assay. In a primary assay for potential ability to modulate umami taste, amide compounds of Formula (I) that can be either savory flavoring agents in their own right or flavor enhancers of MSG are identified and scores of their activities are given as percentage of the maximum MSG intensity (%). In compound dose response, an EC50 is calculated to reflect the potency of the compound as a savory agonist or enhancer.
An HEK293 cell line derivative (See e.g., Chandrashekar, et al., Cell (2000) 100: 703-711) which stably expresses Gα15 and hT1R1/hT1R3 under an inducible promoter (see WO 03/001876 A2) was used to identify compounds with savory tasting properties.
For dose-responses analysis, stimuli were presented in duplicates at 10 different concentrations ranging from 1.5 nM to 30 μM. Activities were normalized to the response obtained with 60 mM monosodium glutamate, a concentration that elicits maximum receptor response. […] Identical results were obtained when analyzing the dose-response data using commercially available software for non-linear regression analysis such as GraphPad PRISM (San Diego, Calif.).

Setting [1] is: read-out: EC50 for activation of a hT1R1/hT1R3 umami receptor expressed in an HEK293 cell line.
The mark [2] stands for this setting: Table A, Umami Amides, read-out: Umami EC50.
Where [3] appears, read: Table C, Umami Ureas, read-out: Umami EC50.
[4] abbreviates: Table B, Umami Oxalamides, read-out: Umami EC50.

As to `CCCCC/C=C/C(=O)N[C@H](CC(C)C)C(=O)OC` [Example 78, (R,E)-methyl 4-methyl-2-oct-2-enamidopentanoate], under setting [1], the EC50 was determined as 920 nM. On to `CCc1ccc(CNC(=O)C(=O)NCCc2ccccn2)cc1` [Example 139, N-(4-Ethylbenzyl)-N′-(2-(pyridin-2-yl)ethyl)oxalamide], for which the EC50 under setting [1] came out at 790 nM. With `CCCCC(NC(=O)c1ccc2c(c1)OCO2)C(=O)OC` (stereo not drawn) [Example A43, 2-[(Benzo[1,3]dioxole-5-carbonyl)-amino]-hexanoic acid methyl ester], the EC50 under setting [2] was 490 nM. For the compound `Cc1cc(C(=O)N[C@H]2CCc3ccccc32)ccc1O` [Example A111, (S)-N-(2,3-dihydro-1H-inden-1-yl)-4-hydroxy-3-methylbenzamide], the EC50 under setting [2] was found to be 660 nM. With `CCCC(CCC)NC(=O)c1ccc2[nH]cnc2c1` [Example 38, N-(heptan-4-yl)-1H-benzo[d]imidazole-5-carboxamide], the EC50 under setting [1] is 18600 nM.

As for `CCOc1ccc(C(=O)N[C@@H]2CCc3ccccc32)cc1C` [(R)-N-(2,3-dihydro-1H-inden-1-yl)-4-ethoxy-3-methylbenzamide], the EC50 (opposite enantiomers compared, read-out: AFFINITY FOR T1R1/T1R3 SAVORY RECEPTOR EC50 UM) is 4530 nM.

`CC(C)c1ccc(NC(=O)NCCc2ccccn2)cc1` [Example C6, 1-(4-isopropylphenyl)-3-(2-(pyridin-2-yl)ethyl)urea]: under setting [3], the EC50 was 980 nM.

With `CCCC(CCC)NC(=O)/C=C/c1ccc(OC)c(OC)c1` [Example 87, 3-(3,4-Dimethoxy-phenyl)-N-(1-propyl-butyl)-acrylamide], under setting [1], the EC50 stood at 970 nM. As to `CCCC(CCC)NC(=O)c1cc2c(cc1C)OCO2` [Example 17, N-(heptan-4-yl)-6-methylbenzo[d][1,3]dioxole-5-carboxamide], the EC50 under setting [1] worked out at 110 nM. For the compound `COC[C@@H](CC(C)C)NC(=O)c1ccc2c(c1)OCO2` [Example 9, (R)-N-(1-methoxy-4-methylpentan-2-yl)benzo[d][1,3]dioxole-5-benzo[d][1,3]dioxole-5-carboxylic acid], the EC50 under setting [1] worked out at 3500 nM. As to `COc1ccc(C(=O)NC2CCc3ccccc32)cc1Cl` (stereo not drawn) [Example A106, 3-chloro-N-(2,3-dihydro-1H-inden-1-yl)-4-methoxybenzamide], the EC50 under setting [2] was 1390 nM. Turning to `Cc1cc(C(=O)NC(C)CCc2ccccc2)ccc1O` (stereo not drawn) [Example 111, 4-Hydroxy-3-methyl-N-(1-methyl-3-phenyl-propyl)-benzamide], the EC50 under setting [1] amounted to 2700 nM. Regarding `CCOc1ccc(CNC(=O)C(=O)NCCc2ccc(C)cn2)c(OC)c1` [Example B2, N1-(4-ethoxy-2-methoxybenzyl)-N2-(2-(5-methylpyndm-2-yl)ethyl)oxalamide], under setting [4], the EC50 turned out to be 190 nM. Regarding `CCCC(NC(=O)c1ccc2c(c1)OCO2)C(=O)OC` (stereo not drawn) [Example A49, 2-[(Benzo[1,3]dioxole-5-carbonyl)-amino]-pentanoic acid methyl ester], the EC50 under setting [2] came to 1540 nM. For `COC(=O)[C@@H](CC(C)C)NC(=O)c1cc2ccccc2[nH]1` [Example A34, (R)-methyl 2-(1H-indole-2-carboxamido)-4-methylpentanoate], under setting [2], the EC50 stood at 530 nM. On to `Cc1cc(C(=O)NC2CCCCC2C)oc1C` (stereo not drawn) [Example A33, 4,5-dimethyl-N-(2-methylcyclohexyl)furan-2-carboxamide], for which the EC50 under setting [2] came out at 1330 nM. Regarding `CCCC(CCC)NC(=O)c1ccc(C)c(SC)c1` [Example 48, 4-methyl-3-methylsulfanyl-N-(1-propylbutyl)benzamide], under setting [1], the EC50 came out at 210 nM. In the case of `COc1ccc2c(c1)CCC2NC(=O)c1ccc(O)c(C)c1` (stereo not drawn) [Example A110, 4-hydroxy-N-(5-methoxy-2,3-dihydro-1H-inden-1-yl)-3-methylbenzamide], the EC50 under setting [2] was determined as 300 nM. Turning to `O=C(N[C@H]1CCCc2ccccc21)c1ccc2c(c1)OCO2` [Example A47, (S)-N-(1,2,3,4-tetrahydronaphthalen-1-yl)benzo[d][1,3]dioxole-5-carboxamide], the EC50 under setting [2] is 1330 nM. In the case of `CCCC(CCC)NC(=O)c1ccc(OC)nc1` [Example 94, N-(heptan-4-yl)-6-methoxynicotinamide], the EC50 under setting [1] came out at 2660 nM. As for `O=C(NCCc1ccccn1)C(=O)NCc1ccc2occc2c1` [Example 140, N-(Benzofuran-5-ylmethyl)-N′-(2-(pyridin-2-yl)ethyl)oxalamide], the EC50 under setting [1] was 1780 nM. With `CCCC(CCC)NC(=O)Nc1ccc(C)cc1Cl` [Example C20, 1-(2-chloro-4-methylphenyl)-3-(heptan-4-yl)urea], under setting [3], the EC50 turned out to be 90 nM.

Regarding `Cc1ccccc1CNC(=O)C(=O)NCCc1ccccn1` [Example 145], the EC50 under setting [1] came out at 590 nM. Take `CCCC(CCC)NC(=O)c1ccc2ncoc2c1` [Example A29, N-(heptan-4-yl)benzo[d]oxazole-6-carboxamide]: the EC50 under setting [2] was 1910 nM. For `CCOc1ccc(C(=O)NC(CC)CC)cc1C` [Example A64, 4-ethoxy-3-methyl-N-(pentan-3-yl)benzamide], the EC50 under setting [2] was 260 nM.

`C=Cc1ccc(C(=O)NC(CCC)CCC)cc1` [Example A78, N-(heptan-4-yl)-4-vinylbenzamide]: the EC50 under setting [2] amounted to 460 nM.

As for `COc1ccc(CNC(=O)C(=O)NCCc2ncccc2C)c(OC)c1` [Example 129, N-(2,4-Dimethoxybenzyl)-N′-(2-(3-methylpyridin-2-yl)ethyl)oxalamide], under setting [1], the EC50 came out at 1640 nM. As for `CCCC(CCC)NC(=O)c1ccc2ocnc2c1` [Example 39, benzooxazole-5-carboxylic acid (1-propylbutyl)amide], the EC50 under setting [1] was 1910 nM. In the case of `COc1ccc(/C=C/C(=O)NC(C)CCc2ccccc2)cc1OC` (stereo not drawn) [Example D16, (E)-3-(3,4-dimethoxyphenyl)-N-(4-phenylbutan-2-yl)acrylamide], the EC50 (Table D, Umami Acrylamides, read-out: Umami EC50) worked out at 1560 nM.

On to `CCCC(CCC)NC(=O)c1cc2c(s1)CCC2` [Example A121, N-(heptan-4-yl)-5,6-dihydro-4H-cyclopenta[b]thiophene-2-carboxamide], for which, under setting [2], the EC50 was determined as 150 nM. As for `COc1ccc(CNC(=O)C(=O)NCCc2ccco2)c(OC)c1` [Example B1, N1-(2,4-dimethoxybenzyi)-N2-(2-(furan-2-yl)ethyl)oxalamide], under setting [4], the EC50 was found to be 180 nM. Consider `O=C(NC1CCc2ccccc21)c1ccc2c(c1)OCO2` (stereo not drawn) [Example 118, Benzo[1,3]dioxole-5-carboxylic acid indan-1-ylamide], for which the EC50 under setting [1] stood at 1200 nM.

Regarding `COc1ccc(CNC(=O)C(=O)NCCc2ccccn2)cc1` [Example 128, N-(4-Methoxybenzyl)-N′-(2-pyridin-2-yl-ethyl)-oxalamide], the EC50 under setting [1] is 750 nM.
